Earlier results in patent publication US20230149295A1, “INFLAMMATORY BOWEL DISEASE STEM CELLS, AGENTS WHICH TARGET IBD STEM CELLS, AND USES RELATED THERETO” (University of Houston System, priority 2020, published 2023).

Columns and labels:
STAT3 = STAT3 (Homo sapiens, UniProt P40763); details: cell-free assays; read-out: IC50 for inhibition of STAT3 activation and nuclear translocation
STAT1 = target: T1, STAT1 (Homo sapiens, UniProt P42224); details: cell-free assays
T1 sequence (P42224 1-750): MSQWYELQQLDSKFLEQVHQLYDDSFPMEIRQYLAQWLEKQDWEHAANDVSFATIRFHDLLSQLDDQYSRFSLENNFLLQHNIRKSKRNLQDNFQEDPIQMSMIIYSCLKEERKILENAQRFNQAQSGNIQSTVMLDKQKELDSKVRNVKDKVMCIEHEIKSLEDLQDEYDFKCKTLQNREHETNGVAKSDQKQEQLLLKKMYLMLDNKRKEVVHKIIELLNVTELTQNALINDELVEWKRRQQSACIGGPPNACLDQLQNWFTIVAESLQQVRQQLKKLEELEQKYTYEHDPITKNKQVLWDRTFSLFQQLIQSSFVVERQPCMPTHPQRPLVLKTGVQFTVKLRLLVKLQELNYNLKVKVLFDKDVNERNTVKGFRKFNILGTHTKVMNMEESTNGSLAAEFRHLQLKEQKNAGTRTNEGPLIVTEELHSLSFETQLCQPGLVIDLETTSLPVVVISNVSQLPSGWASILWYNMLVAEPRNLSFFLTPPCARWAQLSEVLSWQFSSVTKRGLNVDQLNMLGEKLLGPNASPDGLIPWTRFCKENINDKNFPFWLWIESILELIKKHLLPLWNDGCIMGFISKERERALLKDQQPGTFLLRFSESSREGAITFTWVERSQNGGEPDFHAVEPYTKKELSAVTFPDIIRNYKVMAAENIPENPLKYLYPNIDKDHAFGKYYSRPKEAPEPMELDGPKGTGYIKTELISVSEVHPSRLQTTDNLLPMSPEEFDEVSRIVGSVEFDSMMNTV

Chain of STAT3 (P40763 whole entry, species assumed): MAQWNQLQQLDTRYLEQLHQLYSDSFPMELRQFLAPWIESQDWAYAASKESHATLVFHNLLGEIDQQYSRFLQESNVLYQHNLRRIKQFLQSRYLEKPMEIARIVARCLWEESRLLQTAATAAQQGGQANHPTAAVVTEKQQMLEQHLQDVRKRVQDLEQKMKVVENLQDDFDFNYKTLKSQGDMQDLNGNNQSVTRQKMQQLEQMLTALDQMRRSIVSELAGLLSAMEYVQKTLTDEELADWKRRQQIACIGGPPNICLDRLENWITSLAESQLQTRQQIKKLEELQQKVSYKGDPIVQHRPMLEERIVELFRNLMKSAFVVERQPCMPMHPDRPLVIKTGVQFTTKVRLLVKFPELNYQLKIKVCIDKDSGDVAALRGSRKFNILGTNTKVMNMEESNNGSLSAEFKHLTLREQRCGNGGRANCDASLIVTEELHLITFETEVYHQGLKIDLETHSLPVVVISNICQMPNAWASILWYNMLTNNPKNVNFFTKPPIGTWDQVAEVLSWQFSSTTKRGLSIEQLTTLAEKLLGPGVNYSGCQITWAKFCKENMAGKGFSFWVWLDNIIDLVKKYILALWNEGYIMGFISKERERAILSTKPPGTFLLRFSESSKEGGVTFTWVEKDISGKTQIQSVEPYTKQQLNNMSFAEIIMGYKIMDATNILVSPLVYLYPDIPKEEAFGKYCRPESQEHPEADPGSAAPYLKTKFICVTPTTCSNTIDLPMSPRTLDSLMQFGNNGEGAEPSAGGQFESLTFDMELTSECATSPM

IC50 (STAT3) [µM] | selectivity for STAT3 over STAT1 (STAT1) | SMILES | inhibition of ERBB2 phosphorylation (T7981) (ERBB2)
5.1 | highly selectivity over STAT1 | O=[N+]([O-])c1ccc2c(c1)S(=O)(=O)C=C2 [Stattic] | 
 |  | C=CC(=O)Nc1cccc(Sc2nc(Nc3ccc(N4CCN(C)CC4)cc3)ncc2Cl)c1 [WZ8040] | does not inhibit
